# Data from publication PMC11258883 (Protein Science : A Publication of the Protein Society, 2024).
# Target: T1, MenD (Escherichia coli, UniProt P17109)
# T1 sequence (P17109 1-556): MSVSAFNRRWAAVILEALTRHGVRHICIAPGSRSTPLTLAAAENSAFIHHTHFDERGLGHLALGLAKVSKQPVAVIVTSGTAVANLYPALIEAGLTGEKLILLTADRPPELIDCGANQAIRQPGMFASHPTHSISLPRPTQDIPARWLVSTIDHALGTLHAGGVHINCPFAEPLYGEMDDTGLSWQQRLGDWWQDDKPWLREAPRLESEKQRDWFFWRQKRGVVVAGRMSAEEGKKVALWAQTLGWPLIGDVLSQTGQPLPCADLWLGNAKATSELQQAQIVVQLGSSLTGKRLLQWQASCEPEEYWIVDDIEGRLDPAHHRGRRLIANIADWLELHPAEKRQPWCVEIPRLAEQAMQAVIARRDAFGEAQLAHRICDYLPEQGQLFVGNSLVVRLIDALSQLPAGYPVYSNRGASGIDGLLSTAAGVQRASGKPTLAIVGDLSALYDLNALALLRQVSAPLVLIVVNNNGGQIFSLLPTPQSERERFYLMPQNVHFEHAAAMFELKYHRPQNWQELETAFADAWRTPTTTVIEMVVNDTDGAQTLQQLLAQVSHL
# Test: MenD activity assay, OD278 decrease
# Type: biochemical
# Settings: 66 nM MenD, 50 μM thiamine pyrophosphate, 660 μM 2-ketoglutarate, 5 mM MgSO4, pH 8.0; chorismate:isochorismate equilibrium mixture
structure (smiles),measurement,value
C=C(O[C@H]1C=CC=C(C(=O)O)[C@@H]1O)C(=O)O [isochorismate],"MenD activity assay, OD278 decrease",initial velocities were measured as decrease in OD278 upon MenD consumption of isochorismate
